# Assay results from ChEMBL document CHEMBL1201862, “PubChem BioAssay data set” (2004).
# The source made the active and inactive calls.
# How the values were obtained:
# [1] = tested on: Jurkat; assay: antigen receptor-induced NF-kB inhibitors, dose response, Jurkat, luciferase reporter, luminescence, B- and T-cell (AID 489004); assay type: functional, cell-based; conditions: Homo sapiens;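 note: NF-kB luciferase reporter Jurkat cells stimulated with PMA plus ionomycin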
# [2] = tested on: H4; assay: Inhibitors of Prion Protein 5' UTR mRNA Measured in Cell-Based System Using Plate Reader - 2078-01_Inhibitor_Dose_DryPowder_Activity. [Related pubchem assays (depositor defined):AID488894]; assay type: functional; conditions: Homo sapiens
# [3] = tested on: H4; assay: Amyloid Precursor 5' UTR neuroblastoma cell reporter line Measured in Cell-Based System Using Plate Reader - 2078-04_Inhibitor_Dose_DryPowder_Activity. [Related pubchem assays (depositor defined):AID488894]; assay type: functional; conditions: Homo sapiens
# [4] = LGR2 antagonists, dose response, cell-based, HEK293, CRE-luciferase reporter, cherry pick, set 2 (AID 743343); assay type: functional;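 note: transfected cells were stimulated with diluted bursicon conditioned medium after compound addition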
# [5] = cytotoxicity in HEK-293T NF-kB-Luc cells, dose response, cytotoxicity control for B/T-cell NF-kB inhibitor project, cell-based, uHTS hits (AID 489019); assay type: functional;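 note: IC50 reflects cytotoxicity as loss of cell viability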
# [6] = tested on: H4; assay: inhibitors of control reporter signal in H4 cells – cell-based, plate reader, dry powder samples, counter-screen for prion reporter project, dose response (AID 540255); assay type: functional; conditions: Homo sapiens
# [7] = molecular target: Luciferin 4-monooxygenase (Photinus pyralis, UniProt P08659); assay: firefly luciferase enzyme inhibitors, dose response, biochemical, dry powder samples, plate reader (AID 588451)
# [8] = MC4R antagonists, dose response, counter-screen for LGR2 antagonist project, cell-based, plate reader, cherry pick (AID 743444); assay type: functional;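 note: transfected HEK 293 cells stimulated with alpha-MSH peptide; potency of inhibitors of the alpha-MSH evoked signal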
# [9] = tested on: Candida albicans; assay: growth inhibition of azole-resistant C. albicans, dose response, CaCi-8 strain, Alamar Blue, dry powder, set 3 (AID 488905); assay type: functional, organism-based
# [10] = tested on: Candida albicans; assay: reversal of fluconazole resistance in C. albicans, dose response, CaCi-2 strain, Alamar Blue, dry powder, set 3 (AID 488907); assay type: functional, organism-based
# [11] = cytotoxicity in COV362 ovarian cancer cells, dose response, cytotoxicity control for PAX8 inhibitor project, cell-based, plate reader, dry powder, SA12 (AID 743144); assay type: functional
# [12] = IGROV1 ovarian cancer cell cytotoxicity, dose response, PAX8 inhibitor project, plate reader, dry powder samples (AID 743043); assay type: functional, cell-based; conditions: IGROV-1
# [13] = non-specific cell cytotoxicity, dose response, cytotoxicity control for PAX8 inhibitor project, plate reader, dry powder samples (AID 743021); assay type: functional, cell-based
# [14] = molecular target: Beta Lactamase (Pseudomonas aeruginosa, UniProt Q932Y6); assay: beta-lactamase reporter inhibitor potency, dose response, artefact control for TLR9-MyD88 binding inhibitor project, BLA reporter cells, FRET fluorescence (AID 588341); assay type: cell-based;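 note: cell based assay in CHO-K1 cells stably expressing beta-lactamase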
# [15] = molecular target: T1, Ubiquitin-conjugating enzyme E2 N (Homo sapiens, UniProt P61088); assay type: functional
# T1 sequence (P61088 whole entry): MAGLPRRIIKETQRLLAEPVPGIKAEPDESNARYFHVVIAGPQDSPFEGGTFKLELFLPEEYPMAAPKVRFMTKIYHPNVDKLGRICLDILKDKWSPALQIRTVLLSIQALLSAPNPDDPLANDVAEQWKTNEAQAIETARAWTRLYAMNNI
# [16] = molecular target: T2, Microphthalmia-associated transcription factor (Homo sapiens, UniProt O75030); assay: TRPM1 promoter luciferase signal decrease, dose response, MITF inhibitor project, cell-based, SK-MEL-5, cherry-picked, set 3 (AID 493073); assay type: functional
# T2 sequence (O75030 whole entry): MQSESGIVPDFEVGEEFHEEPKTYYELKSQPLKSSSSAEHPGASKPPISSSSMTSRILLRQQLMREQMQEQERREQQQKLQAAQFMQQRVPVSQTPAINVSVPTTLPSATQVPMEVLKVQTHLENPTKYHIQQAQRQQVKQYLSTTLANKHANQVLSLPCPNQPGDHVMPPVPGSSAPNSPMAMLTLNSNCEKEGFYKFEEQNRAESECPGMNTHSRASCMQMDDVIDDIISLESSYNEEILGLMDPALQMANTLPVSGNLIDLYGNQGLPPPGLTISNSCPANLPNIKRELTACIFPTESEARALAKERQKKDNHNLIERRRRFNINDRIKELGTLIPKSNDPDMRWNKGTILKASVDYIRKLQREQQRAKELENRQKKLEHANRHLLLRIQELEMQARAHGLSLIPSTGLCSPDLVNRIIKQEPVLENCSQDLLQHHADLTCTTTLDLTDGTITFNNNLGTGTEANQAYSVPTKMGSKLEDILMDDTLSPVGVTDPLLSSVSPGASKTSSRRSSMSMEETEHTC
# [17] = cytotoxicity dependent on PAX8, dose response, cell-based, plate reader, dry powder (AID 743049); assay type: functional
# [18] = molecular target: Paired box protein Pax-8 (Homo sapiens, UniProt Q06710); assay: inhibitors of PAX8-driven TPO luciferase reporter, dose response, RMG-I cells, cherry-pick (AID 687027); assay type: functional, cell-based;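 note: luciferase reporter driven by Pax8 target thyroperoxidase promoter measured by SteadyGlo luminescence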
# [19] = molecular target: T3, Bcl-2-related protein A1 (Mus musculus, UniProt Q07440); assay type: functional;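 note: confirmatory dose–response counterscreen on Bfl-1, used to check hits from a UBC13 polyubiquitin inhibitor campaign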
# T3 sequence (Q07440 whole entry): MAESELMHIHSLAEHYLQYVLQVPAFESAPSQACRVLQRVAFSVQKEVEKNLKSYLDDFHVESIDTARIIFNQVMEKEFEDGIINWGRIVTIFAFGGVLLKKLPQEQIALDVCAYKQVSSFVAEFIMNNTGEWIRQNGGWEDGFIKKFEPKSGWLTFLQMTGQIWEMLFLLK
# [20] = cytotoxicity in OV-90 ovarian cancer cells, dose response, PAX8 inhibitor project, cell-based, plate reader, dry powder, SA8 (AID 743149); assay type: functional
# [21] = tested on: CHO; assay: cytotoxicity in TLR9-MyD88 CHO cells, dose response, cytotoxicity control for TLR9-MyD88 binding inhibitor project, cell-based, luminescence (AID 588339); assay type: functional, hamster; conditions: Cricetulus griseus;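 note: CHO cells stably coexpressing TLR9 and MyD88 fusions from primary screen; compound exposure lasted 48 hours before viability readout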
# [22] = A2780 ovarian cancer cell cytotoxicity, dose response, cytotoxicity control, plate reader, dry powder samples (AID 743046); assay type: functional, cell-based
# [23] = Shn3 3'UTR reporter inhibitors, dose response, cell-based, Clone20 osteoblasts, firefly luciferase, cherry-picked (AID 624132); assay type: functional;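 note: firefly luciferase luminescence from reporter carrying the Shn3 3'UTR in osteoblasts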
# [24] = molecular target: T4, Replicative DNA helicase DnaB (Mycobacterium tuberculosis, UniProt P9WMR3); assay: DnaB intein splicing inhibitors, dose response, biochemical, cell-free fluorescence (AID 449749); assay type: functional
# T4 sequence (P9WMR3 whole entry): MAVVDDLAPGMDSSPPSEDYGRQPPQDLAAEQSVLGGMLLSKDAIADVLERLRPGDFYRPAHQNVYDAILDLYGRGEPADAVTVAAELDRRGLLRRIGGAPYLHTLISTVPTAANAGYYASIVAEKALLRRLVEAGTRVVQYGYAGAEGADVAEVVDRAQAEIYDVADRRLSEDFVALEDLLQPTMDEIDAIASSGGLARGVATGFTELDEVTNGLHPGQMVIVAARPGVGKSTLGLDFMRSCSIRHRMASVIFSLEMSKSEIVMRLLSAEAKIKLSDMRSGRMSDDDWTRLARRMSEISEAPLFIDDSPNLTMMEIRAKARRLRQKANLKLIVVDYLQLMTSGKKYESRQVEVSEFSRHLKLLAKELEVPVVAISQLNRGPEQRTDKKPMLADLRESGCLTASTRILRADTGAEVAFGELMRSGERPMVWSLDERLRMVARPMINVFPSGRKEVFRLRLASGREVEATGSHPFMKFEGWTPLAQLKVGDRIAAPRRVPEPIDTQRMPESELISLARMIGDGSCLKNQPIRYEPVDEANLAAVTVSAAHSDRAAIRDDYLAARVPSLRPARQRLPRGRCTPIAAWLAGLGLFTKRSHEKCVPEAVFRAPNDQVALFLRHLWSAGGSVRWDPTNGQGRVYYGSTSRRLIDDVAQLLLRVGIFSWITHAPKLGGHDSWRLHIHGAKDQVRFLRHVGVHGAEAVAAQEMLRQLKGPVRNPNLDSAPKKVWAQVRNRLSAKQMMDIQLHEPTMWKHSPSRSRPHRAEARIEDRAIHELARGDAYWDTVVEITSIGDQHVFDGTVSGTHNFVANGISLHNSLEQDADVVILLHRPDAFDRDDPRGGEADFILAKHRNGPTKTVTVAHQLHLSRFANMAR
# [25] = cytotoxicity in COV434 cells, dose response, cytotoxicity control for PAX8 inhibitor project, cell-based, plate reader, dry powder, SA7 (AID 743145); assay type: functional
# [26] = NIH:OVCAR-3 ovarian cancer cell cytotoxicity, dose response, PAX8 inhibitor project, plate reader, dry powder samples (AID 743044); assay type: functional, cell-based
# [27] = IOSE-T80 ovarian epithelial cell cytotoxicity, dose response, cytotoxicity control for PAX8 inhibitor project, plate reader, dry powder samples (AID 743045); assay type: functional, cell-based
# [28] = molecular target: T1, Ubiquitin-conjugating enzyme E2 N; assay type: functional; remark: listed apart in the source
# [29] = HepG2 cell cytotoxicity, dose response, cytotoxicity control for Shn3 inhibitor project, CellTiter-Glo, cherry-picked (AID 624134); assay type: functional, cell-based
# [30] = molecular target: ATP-binding cassette sub-family B member 6 (Homo sapiens, UniProt Q9NP58); assay: ABCB6 transporter inhibitors, porphyrin accumulation, dose response, flow cytometry, K562-ABCB6 cells, cherry pick 02 (AID 624487); assay type: functional; conditions: read-out: EC50_MICROM
# [31] = cytotoxicity in OVCAR4 cells, dose response, cytotoxicity control for PAX8 inhibitor project, cell-based, plate reader, dry powder, SA11 (AID 743150); assay type: functional; conditions: OVCAR-4
# [32] = control 3'UTR Renilla luciferase suppression, dose response, counter-screen for Shn3 inhibitor project, cell-based, Clone20-Shn3RL, cherry-picked (AID 624133); assay type: functional
# [33] = molecular target: T5, Protein RecA (Mycobacterium tuberculosis, UniProt P9WHJ3); assay: Fluorescence Cell-Free Homogeneous Dose Retest to Identify Inhibitors of RecA-Intein Splicing Activity. [Related pubchem assays (depositor defined):AID2097, AID2223, AID489010, AID492950]; assay type: functional
# T5 sequence (P9WHJ3 whole entry): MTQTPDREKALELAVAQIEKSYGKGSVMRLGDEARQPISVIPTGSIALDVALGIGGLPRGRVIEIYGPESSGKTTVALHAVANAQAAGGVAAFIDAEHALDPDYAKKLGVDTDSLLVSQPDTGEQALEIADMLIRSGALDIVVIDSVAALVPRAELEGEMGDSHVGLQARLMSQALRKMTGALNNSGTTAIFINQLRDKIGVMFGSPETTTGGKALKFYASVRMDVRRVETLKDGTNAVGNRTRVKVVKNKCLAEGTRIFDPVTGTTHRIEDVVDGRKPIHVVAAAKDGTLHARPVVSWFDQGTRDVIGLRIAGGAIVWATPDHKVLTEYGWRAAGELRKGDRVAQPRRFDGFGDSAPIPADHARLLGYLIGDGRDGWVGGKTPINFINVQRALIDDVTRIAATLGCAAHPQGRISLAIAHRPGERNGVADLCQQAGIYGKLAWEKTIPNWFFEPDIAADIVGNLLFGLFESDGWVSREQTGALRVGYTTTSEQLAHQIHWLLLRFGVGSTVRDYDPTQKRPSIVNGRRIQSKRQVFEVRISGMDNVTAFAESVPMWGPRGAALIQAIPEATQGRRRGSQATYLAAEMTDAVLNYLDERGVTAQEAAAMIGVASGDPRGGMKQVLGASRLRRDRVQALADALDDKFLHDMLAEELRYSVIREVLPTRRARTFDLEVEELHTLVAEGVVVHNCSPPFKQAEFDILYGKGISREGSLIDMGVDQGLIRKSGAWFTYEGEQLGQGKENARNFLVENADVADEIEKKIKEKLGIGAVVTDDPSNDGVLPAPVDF
# [34] = molecular target: Glycogen synthase kinase-3 alpha (Homo sapiens, UniProt P49840); assay: Inhibition of Human GSK-3 alpha Activity Measured in Biochemical System Using Microfluidics - 2063-06_Inhibitor_Dose_DryPowder_Activity_Set2. [Related pubchem assays (depositor defined):AID2709]
# [35] = molecular target: T6, Cyclin-dependent kinase 5/CDK5 activator 1 (Homo sapiens, UniProt Q00535); assay: CDK5-p25 kinase inhibitors, specificity check, dose response, selectivity assay for GSK-3 alpha inhibitor project, biochemical, microfluidic mobility shift, dry powder (AID 588430)
# [36] = molecular target: Glycogen synthase kinase-3 beta (Homo sapiens, UniProt P49841); assay: Inhibition of Human GSK-3 beta Activity Measured in Biochemical System Using Microfluidics - 2063-05_Inhibitor_Dose_DryPowder_Activity_Set2. [Related pubchem assays (depositor defined):AID2709]
# [37] = molecular target: T6, Cyclin-dependent kinase 5/CDK5 activator 1; assay: CDK5/p35 kinase inhibitors, dose response, biochemical, cherry-picked samples, set 2 (AID 504545)
# T6 sequence (Q00535 whole entry): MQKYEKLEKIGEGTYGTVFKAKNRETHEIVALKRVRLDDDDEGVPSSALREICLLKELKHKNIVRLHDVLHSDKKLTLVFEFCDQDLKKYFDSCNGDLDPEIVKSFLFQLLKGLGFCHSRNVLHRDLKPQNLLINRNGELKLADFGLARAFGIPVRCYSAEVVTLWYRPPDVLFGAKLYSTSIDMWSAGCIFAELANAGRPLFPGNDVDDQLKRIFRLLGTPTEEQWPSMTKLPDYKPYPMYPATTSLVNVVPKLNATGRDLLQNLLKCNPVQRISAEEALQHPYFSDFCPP
# T6 sequence (Q15078 whole entry, further chain): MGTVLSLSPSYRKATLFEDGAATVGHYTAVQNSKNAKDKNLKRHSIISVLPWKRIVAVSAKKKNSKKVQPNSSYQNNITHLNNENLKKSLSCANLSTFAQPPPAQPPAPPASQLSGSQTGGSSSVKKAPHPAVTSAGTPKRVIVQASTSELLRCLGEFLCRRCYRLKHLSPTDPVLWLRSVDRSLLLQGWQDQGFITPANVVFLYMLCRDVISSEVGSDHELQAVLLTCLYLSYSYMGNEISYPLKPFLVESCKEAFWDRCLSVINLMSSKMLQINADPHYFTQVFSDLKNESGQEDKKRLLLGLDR
# Sequence of ATP-binding cassette sub-family B member 6 (Q9NP58 whole entry): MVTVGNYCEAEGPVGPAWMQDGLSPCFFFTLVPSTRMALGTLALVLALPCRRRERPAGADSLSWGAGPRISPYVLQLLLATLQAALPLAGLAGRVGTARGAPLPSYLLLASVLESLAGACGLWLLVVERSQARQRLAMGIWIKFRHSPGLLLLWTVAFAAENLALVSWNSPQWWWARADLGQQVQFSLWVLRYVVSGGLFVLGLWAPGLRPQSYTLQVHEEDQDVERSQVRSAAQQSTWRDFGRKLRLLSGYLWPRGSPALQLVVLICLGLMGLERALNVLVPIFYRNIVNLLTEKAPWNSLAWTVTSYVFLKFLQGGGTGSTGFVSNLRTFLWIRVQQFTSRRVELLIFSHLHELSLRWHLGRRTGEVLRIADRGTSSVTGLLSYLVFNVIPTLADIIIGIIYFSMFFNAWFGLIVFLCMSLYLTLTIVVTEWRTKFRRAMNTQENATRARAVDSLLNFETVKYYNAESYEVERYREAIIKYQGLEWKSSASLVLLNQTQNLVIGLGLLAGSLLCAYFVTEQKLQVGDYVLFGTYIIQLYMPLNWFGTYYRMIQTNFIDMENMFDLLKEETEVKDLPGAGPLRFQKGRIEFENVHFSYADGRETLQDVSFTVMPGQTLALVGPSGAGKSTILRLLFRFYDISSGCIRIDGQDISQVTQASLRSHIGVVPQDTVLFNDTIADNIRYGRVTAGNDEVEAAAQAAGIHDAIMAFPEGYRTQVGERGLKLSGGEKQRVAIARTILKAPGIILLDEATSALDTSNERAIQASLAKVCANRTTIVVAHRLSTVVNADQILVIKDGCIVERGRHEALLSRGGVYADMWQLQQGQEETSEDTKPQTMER
# Sequence of Luciferin 4-monooxygenase (P08659 whole entry): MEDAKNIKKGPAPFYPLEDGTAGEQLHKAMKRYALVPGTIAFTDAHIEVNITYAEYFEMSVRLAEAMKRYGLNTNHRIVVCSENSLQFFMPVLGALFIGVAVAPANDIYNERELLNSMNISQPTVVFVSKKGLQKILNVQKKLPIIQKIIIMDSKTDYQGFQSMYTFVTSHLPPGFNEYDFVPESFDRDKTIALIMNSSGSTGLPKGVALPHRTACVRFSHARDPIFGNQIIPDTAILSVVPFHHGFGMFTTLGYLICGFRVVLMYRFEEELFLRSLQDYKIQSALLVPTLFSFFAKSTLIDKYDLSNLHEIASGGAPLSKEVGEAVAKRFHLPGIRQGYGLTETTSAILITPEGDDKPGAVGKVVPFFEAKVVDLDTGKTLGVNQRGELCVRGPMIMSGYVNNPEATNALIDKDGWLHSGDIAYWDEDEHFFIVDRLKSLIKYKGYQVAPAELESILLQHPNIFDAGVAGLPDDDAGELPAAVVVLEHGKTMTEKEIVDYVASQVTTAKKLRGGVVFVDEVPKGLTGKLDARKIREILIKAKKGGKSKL
# Sequence of Paired box protein Pax-8 (Q06710 whole entry): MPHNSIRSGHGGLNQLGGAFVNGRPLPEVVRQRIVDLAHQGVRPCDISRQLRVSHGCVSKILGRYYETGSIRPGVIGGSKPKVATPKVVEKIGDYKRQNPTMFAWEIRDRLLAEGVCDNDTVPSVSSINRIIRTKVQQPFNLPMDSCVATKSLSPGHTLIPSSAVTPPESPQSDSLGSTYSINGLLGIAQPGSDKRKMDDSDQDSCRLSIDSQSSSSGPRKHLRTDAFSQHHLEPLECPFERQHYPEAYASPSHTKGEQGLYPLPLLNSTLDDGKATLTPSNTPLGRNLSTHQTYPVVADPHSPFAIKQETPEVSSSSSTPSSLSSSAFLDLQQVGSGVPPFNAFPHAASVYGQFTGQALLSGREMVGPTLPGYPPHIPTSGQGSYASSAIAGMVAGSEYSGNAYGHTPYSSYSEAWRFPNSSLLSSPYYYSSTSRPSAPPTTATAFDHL
# Sequence of Glycogen synthase kinase-3 beta (P49841 whole entry): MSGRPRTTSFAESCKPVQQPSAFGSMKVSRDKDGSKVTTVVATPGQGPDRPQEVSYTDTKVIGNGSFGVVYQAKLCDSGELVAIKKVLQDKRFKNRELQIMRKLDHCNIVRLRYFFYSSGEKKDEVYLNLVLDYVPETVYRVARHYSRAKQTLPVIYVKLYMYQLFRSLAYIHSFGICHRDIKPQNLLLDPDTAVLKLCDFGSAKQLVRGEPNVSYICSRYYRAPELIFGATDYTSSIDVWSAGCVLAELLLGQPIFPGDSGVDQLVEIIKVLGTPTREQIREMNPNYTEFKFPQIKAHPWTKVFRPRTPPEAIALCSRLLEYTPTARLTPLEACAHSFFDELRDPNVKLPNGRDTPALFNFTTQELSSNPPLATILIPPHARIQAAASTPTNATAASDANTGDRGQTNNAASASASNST
# Sequence of Glycogen synthase kinase-3 alpha (P49840 whole entry): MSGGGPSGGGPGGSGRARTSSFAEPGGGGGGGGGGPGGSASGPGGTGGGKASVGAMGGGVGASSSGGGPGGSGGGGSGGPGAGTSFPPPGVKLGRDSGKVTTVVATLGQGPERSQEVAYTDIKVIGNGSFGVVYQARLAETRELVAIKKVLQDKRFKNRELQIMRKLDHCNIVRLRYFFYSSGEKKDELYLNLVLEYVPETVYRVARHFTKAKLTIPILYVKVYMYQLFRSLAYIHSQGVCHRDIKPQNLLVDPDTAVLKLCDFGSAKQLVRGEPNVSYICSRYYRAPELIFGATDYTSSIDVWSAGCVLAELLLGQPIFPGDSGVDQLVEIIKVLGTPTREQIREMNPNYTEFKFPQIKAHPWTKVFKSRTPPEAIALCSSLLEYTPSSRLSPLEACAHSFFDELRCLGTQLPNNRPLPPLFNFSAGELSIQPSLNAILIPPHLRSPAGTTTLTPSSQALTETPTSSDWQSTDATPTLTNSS
# Sequence of Beta Lactamase (Q932Y6 whole entry): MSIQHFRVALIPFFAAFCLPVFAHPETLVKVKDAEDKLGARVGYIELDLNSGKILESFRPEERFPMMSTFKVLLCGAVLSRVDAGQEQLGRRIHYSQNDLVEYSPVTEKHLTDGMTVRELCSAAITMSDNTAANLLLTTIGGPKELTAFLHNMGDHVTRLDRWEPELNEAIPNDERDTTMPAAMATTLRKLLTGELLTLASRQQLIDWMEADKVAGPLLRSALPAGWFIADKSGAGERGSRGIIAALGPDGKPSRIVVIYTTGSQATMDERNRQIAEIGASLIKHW
smiles,measurement,setting,value
Cc1cc(C(=O)COC(=O)c2ccccc2O)c(C)n1CC1CCCO1 (configuration not stated),IC50,[1],0.25 µM (active)
same,AC50,[2],0.017 µM (active)
same,AC50,[3],0.00598 µM (active)
same,AC50,[4],0.178 µM (active)
same,IC50,[5],> 80 µM (inactive)
same,AC50,[6],0.273 µM (active)
same,AC50,[7],1.05 µM (active)
same,AC50,[8],0.178 µM (active)
CCCCC(=O)N1CCN(c2ccccn2)CC1,AC50,[9],0.283 µM (active)
same,AC50,[10],0.73 µM (active)
CC(=O)Nc1ccc(NC(=O)c2nc(S(=O)(=O)Cc3ccccc3)ncc2Cl)cc1,AC50,[11],23.1 µM (active)
same,AC50,[12],15.8 µM (active)
same,AC50,[13],20.7 µM (active)
same,IC50,[14],7.61 µM (active)
same,IC50,[15],> 20 µM (inactive)
same,AC50,[16],12.8 µM (active)
same,AC50,[17],17.6 µM (active)
same,AC50,[18],9.86 µM (active)
same,IC50,[19],> 20 µM (inactive)
same,AC50,[20],30 µM (active)
same,IC50,[21],6.31 µM (active)
same,AC50,[22],10.2 µM (active)
same,AC50,[23],0.773 µM (active)
same,AC50,[24],11.2 µM (active)
same,AC50,[25],12.7 µM (active)
same,AC50,[26],15.3 µM (active)
same,AC50,[27],18.2 µM (active)
same,IC50,[28],10.9 µM (active)
same,AC50,[29],28.6 µM (active)
same,EC50,[30],8.72 µM (active)
same,AC50,[31],25.9 µM (active)
same,AC50,[32],6.33 µM (active)
same,EC50,[33],9.36 µM (active)
COc1ccc2nc3c(cc2c1)c(NC(=O)CC(C)C)nn3CC(C)C,AC50,[34],1.48 µM (active)
same,AC50,[35],1.4 µM (active)
same,AC50,[36],0.228 µM (active)
same,AC50,[37],32.7 µM (active)
